Legend:
[1] = Microsomal stability (Rat); format: in vitro ADME; details: after 60 minutes
Description: (§1) Microsomal stability of disclosed compounds was investigated. The following table indicates the percent of compound remaining after 60 minutes.

[2] = Microsomal stability (Human); format: in vitro ADME; details: after 60 minutes
Description: as §1

[3] = Plasma stability (Human); format: in vitro ADME; details: after 60 minutes
Description: Plasma stability of disclosed compounds was investigated. The following table indicates the percent of compound remaining after 60 minutes.

[4] = target: T1, NMDAR2D (Homo sapiens, UniProt O15399+Q05586); assay: NMDAR agonist assay, [3H]MK-801 binding, NMDAR2D expressing HEK cell membranes; format: biochemical; details: 50 μM glutamate; read-out: NMDAR2D B: log EC50 (converted)
T1 construct: expressed in transfected cells; host or cells: HEK cells (membrane extract)
T1 sequence (O15399 28-1336, species assumed, other chains not shown): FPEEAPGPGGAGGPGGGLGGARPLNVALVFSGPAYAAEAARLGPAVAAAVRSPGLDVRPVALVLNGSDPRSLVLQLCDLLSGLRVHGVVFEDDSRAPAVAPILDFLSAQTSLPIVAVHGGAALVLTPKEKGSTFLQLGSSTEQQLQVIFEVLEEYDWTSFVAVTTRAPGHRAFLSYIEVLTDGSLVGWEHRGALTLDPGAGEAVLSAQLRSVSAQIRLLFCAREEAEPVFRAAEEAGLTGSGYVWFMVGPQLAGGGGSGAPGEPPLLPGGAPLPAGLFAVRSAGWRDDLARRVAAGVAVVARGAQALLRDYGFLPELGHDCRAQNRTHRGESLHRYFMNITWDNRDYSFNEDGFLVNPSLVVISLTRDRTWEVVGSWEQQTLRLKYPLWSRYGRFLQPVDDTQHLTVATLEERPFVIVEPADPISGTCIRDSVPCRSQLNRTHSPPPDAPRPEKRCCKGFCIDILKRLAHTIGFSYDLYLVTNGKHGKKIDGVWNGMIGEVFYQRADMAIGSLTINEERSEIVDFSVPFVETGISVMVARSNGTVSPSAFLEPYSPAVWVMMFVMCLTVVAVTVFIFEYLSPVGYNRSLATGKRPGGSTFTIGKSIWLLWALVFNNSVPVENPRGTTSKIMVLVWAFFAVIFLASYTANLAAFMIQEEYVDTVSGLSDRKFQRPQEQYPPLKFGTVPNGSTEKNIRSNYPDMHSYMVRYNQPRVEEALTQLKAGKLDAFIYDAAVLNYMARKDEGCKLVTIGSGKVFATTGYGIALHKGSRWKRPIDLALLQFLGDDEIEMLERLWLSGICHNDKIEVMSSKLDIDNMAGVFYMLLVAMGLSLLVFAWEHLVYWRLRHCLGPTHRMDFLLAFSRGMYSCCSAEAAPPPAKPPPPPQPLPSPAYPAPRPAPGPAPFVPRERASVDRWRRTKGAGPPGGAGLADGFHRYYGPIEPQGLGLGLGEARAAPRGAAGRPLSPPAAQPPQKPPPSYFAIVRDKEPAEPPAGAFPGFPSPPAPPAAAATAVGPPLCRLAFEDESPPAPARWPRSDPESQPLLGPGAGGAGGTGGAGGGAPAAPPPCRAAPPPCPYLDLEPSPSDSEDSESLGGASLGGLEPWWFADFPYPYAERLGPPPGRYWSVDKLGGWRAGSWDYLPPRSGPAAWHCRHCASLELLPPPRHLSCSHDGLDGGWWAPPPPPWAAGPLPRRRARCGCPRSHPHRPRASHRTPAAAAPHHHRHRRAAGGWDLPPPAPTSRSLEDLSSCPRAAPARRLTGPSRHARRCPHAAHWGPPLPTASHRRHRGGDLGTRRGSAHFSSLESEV
Description: (§2) Assays were conducted as described by Moskal et al., “GLYX-13: a monoclonal antibody-derived peptide that acts as an N-methyl-D-aspartate receptor modulator,” Neuropharmacology, 49, 1077-87, 2005. These studies were designed to determine if the test compounds act to facilitate NMDAR activation in NMDAR2A, NMDAR2B, NMDAR2C or NMDAR2D expressing HEK cell membranes as measured by increases in [^3H]MK-801 binding.
(§3) In the assay, 300 μg of NMDAR expressing HEK cell membrane extract protein was preincubated for 15 minutes at […] in the presence of saturating concentrations of glutamate (50 μM) and varying concentrations of test compound (1×10^−15M-1×10^−7M), or 1 mM glycine. Following the addition of 0.3 μCi of [3H]MK-801 (22.5 Ci/mmol), reactions were again incubated for 15 minutes at 25° C. (nonequilibrium conditions). Bound and free [3H]MK-801 were separated via rapid filtration using a Brandel apparatus.
(§4) In analyzing the data, the DPM (disintegrations per minute) of [3H]MK-801 remaining on the filter were measured for each concentration of test compound or for 1 mM glycine. The DPM values for each concentration of a ligand (N=2) were averaged. The baseline value was determined from the best fit curve of the DPM values modeled using the GraphPad program and the log(agonist) vs. response (three parameters) algorithm was then subtracted from all points in the dataset. The % maximal [^3H]MK-801 binding was then calculated relative to that of 1 mM glycine: all baseline subtracted DPM values were divided by the average value for 1 mM glycine. The EC50 and % maximal activity were then obtained from the best fit curve of the % maximal [3H]MK-801 binding data modelled using the GraphPad program and the log(agonist) vs. response (three parameters) algorithm.
(§5) The tables below summarize the results for the wild type […] NMDAR2A, NMDAR2B, NMDAR2C, and NMDAR2D, and whether the compound is not an agonist (−), is an agonist (+), or is a strong agonist (++), where column A is based on the % maximal [3H]MK-801 binding relative to 1 mM glycine (−=0; <100%=+; and >100%=++); and column B is based on log EC50 values (0=−; ≥1×10^−9 M (e.g., −8)=+; and <1×10^−9 M (e.g., −10)=++).

[5] = target: T2, NMDAR2D (Homo sapiens, UniProt O15399); assay: as above; format: biochemical; details: 50 μM glutamate; relative to 1 mM glycine
T2 construct: expressed in transfected cells; host or cells: HEK cells (membrane extract)
T2 sequence (O15399 28-1336, species assumed, other chains not shown): as above
Description: as §2, §3, §4, §5

Microsomal (Rat): percent of compound remaining [1]: 90% | Microsomal (Human): percent of compound remaining [2]: 94% | Plasma (Human): percent of compound remaining [3]: 95% | EC50 [4]: < 1 nM | NMDAR2D A: % maximal [3H]MK-801 binding relative to 1 mM glycine [5]: + (<100%=+)
SMILES: O=C1NCC=CC[C@]12CCCN2 [GA, (R)-1,7-diazaspiro[4.6]undec-9-en-6-one]

Reference: US20210047324A1 (Aptinyx Inc., priority 2018, published 2021)
